Experimental data taken from ChEMBL document CHEMBL4334471, “Discovery of 1,8-disubstituted-[1,2,3]triazolo[4,5-c]quinoline derivatives as a new class of Hippo signaling pathway inhibitors” (Bioorg Med Chem Lett, 2019).

Columns and labels:
[1] = target: ALK tyrosine kinase receptor (Homo sapiens) (UniProt Q9UM73); experiment: Inhibition of human ALK (1058 to end residues) assessed as residual activity at 10 uM using KKKSPGEYVNIEFG as substrate incubated for 40 mins in presence of [gamma-33ATP] by scintillation counting based radiometry assay relative to control
[2] = target: Focal adhesion kinase 1 (Homo sapiens) (UniProt Q05397); experiment: Inhibition of recombinant human FAK (411 to 686 residues) assessed as residual activity at 10 uM using EEEEYEEEEEEYYIIEEEEEEYEEEEEEYYEEEEEEKKKK as substrate at 40 mins in presence of [gamma-33ATP] by scintillation counting based radiometry assay relative to control
[3] = target: DNA-dependent protein kinase catalytic subunit (Homo sapiens) (UniProt P78527); experiment: Inhibition of human DNA-PK assessed as residual activity at 10 uM using GST-cMyc-p53 as substrate measured after 40 mins by fluorescence assay relative to control
[4] = target: Mitogen-activated protein kinase kinase kinase 3 (Homo sapiens) (UniProt Q99759); experiment: Inhibition of recombinant full length human MEKK3 assessed as residual activity at 10 uM using myelin basic protein as substrate incubated for 120 mins in presence of [gamma-33ATP by scintillation counting based radiometry assay relative to control
[5] = target: Serine/threonine-protein kinase haspin (Homo sapiens) (UniProt Q8TF76); experiment: Inhibition of human Haspin (471 to end residues ) assessed as residual activity at 10 uM using RARTLSFAEPG as substrate after 40 mins by [gamma-33ATP] radiometric assay relative to control
[6] = target: Fibroblast growth factor receptor 2 (Homo sapiens) (UniProt P21802); experiment: Inhibition of recombinant human FGFR2 (456 to 770 residues) assessed as residual activity at 10 uM using poly(Glu, Tyr) 4:1 as substrate at 40 mins in presence of [gamma-33ATP] by scintillation counting based radiometry assay relative to control
[7] = target: Death-associated protein kinase 1 (Homo sapiens) (UniProt P53355); experiment: Inhibition of recombinant human DAPK1 (1 to 296 residues) assessed as residual activity at 10 uM KKLNRTLSFAEPG as substrate incubated 40 mins in presence of [gamma-33ATP] by scintillation counting based radiometry assay relative to control
[8] = target: Ephrin type-A receptor 2 (Homo sapiens) (UniProt P29317); experiment: Inhibition of recombinant human EphA2 (596 to 900 residues) assessed as residual activity at 10 uM using poly(Glu, Tyr) 4:1 as substrate at 40 mins in presence of [gamma-33ATP] by scintillation counting based radiometry assay relative to control
[9] = target: Myosin-IIIb (Homo sapiens) (UniProt Q8WXR4); experiment: Inhibition of recombinant human MYO3B (1 to 306 residues) assessed as residual activity at 10 uM using RLGRDKYKTLRQI as substrate measured after 40 mins in presence of [gamma33P]ATP by scintillation counting based radiometry assay relative to control
[10] = target: Serine/threonine-protein kinase Nek1 (Homo sapiens) (UniProt Q96PY6); experiment: Inhibition of recombinant human NEK1 (1 to 505 residues) assessed as residual activity at 10 uM using RLGRDKYKTLRQI as substrate measured after 40 mins in presence of [gamma33P]ATP by scintillation counting based radiometry assay relative to control
[11] = tested on: Serine/threonine-protein kinase TAO3 (Homo sapiens), Q9H2K8 [UNDEFINED MUTATION]; experiment: Inhibition of recombinant human TAO3 N47S mutant (1 to 411 residues) assessed as residual activity at 10 uM using myelin basic protein as substrate incubated for 40 mins in presence of [gamma33P]ATP by scintillation counting based radiometry assay relative to control
[12] = target: Serine/threonine-protein kinase SBK1 (Homo sapiens) (UniProt Q52WX2); experiment: Inhibition of recombinant full-length human SBK1 assessed as residual activity at 10 uM using KKLRRTLSVA as substrate incubated for 120 mins in presence of [gamma33P]ATP by scintillation counting based radiometry assay relative to control
[13] = target: Calcium/calmodulin-dependent protein kinase type II subunit beta (Homo sapiens) (UniProt Q13554); experiment: Inhibition of recombinant human CaMK2beta (1 to 315 residues) assessed as residual activity at 10 uM using […] incubated for 40 mins in presence of [gamma-33ATP] by scintillation counting based radiometry assay relative to control
[14] = target: Serine/threonine-protein kinase Nek6 (Homo sapiens) (UniProt Q9HC98); experiment: Inhibition of recombinant human NEK6 (2 to end residues) assessed as residual activity at 10 uM using FLAKSFGSPNRAYKK as substrate measured after 40 mins in presence of [gamma33P]ATP by scintillation counting based radiometry assay relative to control
[15] = target: Protein kinase C theta type (Homo sapiens) (UniProt Q04759); experiment: Inhibition of recombinant full length human PKCtheta assessed as residual activity at 10 uM using histone H1 as substrate incubated for 40 mins in presence of [gamma33P]ATP by scintillation counting based radiometry assay relative to control
[16] = target: Casein kinase II subunit alpha (Homo sapiens) (UniProt P68400); experiment: Inhibition of recombinant full length human CK2alpha1 assessed as residual activity at 10 uM using RRRDDDSDDD as substrate incubated 40 mins in presence of [gamma-33ATP] by scintillation counting based radiometry assay relative to control
[17] = target: Macrophage colony-stimulating factor 1 receptor (Homo sapiens) (UniProt P07333); experiment: Inhibition of recombinant human FMS (538 to end residues) assessed as residual activity at 10 uM using KKKSPGEYVNIEF as substrate at 40 mins in presence of [gamma-33ATP] by scintillation counting based radiometry assay relative to control
[18] = target: Homeodomain-interacting protein kinase 2 (Homo sapiens) (UniProt Q9H2X6); experiment: Inhibition of human HIPK2 (165 to 564 residues) assessed as residual activity at 10 uM using myelin basic protein as substrate after 40 mins by [gamma-33ATP] radiometric assay relative to control
[19] = target: Serine/threonine-protein kinase STK11 (Homo sapiens) (UniProt Q15831); experiment: Inhibition of recombinant human LKB1 assessed as residual activity at 10 uM using LSNLYHQGKFLQT as substrate after 40 mins in presence of [gamma-33ATP] by scintillation counting based radiometry assay relative to control
[20] = target: Testis-specific serine/threonine-protein kinase 4 (Homo sapiens) (UniProt Q6SA08); experiment: Inhibition of recombinant full-length human TSSK4 assessed as residual activity at 10 uM using KKLNRTLSFAEPG as substrate incubated for 40 mins in presence of [gamma33P]ATP by scintillation counting based radiometry assay relative to control
[21] = target: cAMP-dependent protein kinase catalytic subunit alpha (Homo sapiens) (UniProt P17612); experiment: Inhibition of recombinant human PKA assessed as residual activity at 10 uM relative to control

Chain of Macrophage colony-stimulating factor 1 receptor (Homo sapiens) (P07333 whole entry, the tested form may be a part): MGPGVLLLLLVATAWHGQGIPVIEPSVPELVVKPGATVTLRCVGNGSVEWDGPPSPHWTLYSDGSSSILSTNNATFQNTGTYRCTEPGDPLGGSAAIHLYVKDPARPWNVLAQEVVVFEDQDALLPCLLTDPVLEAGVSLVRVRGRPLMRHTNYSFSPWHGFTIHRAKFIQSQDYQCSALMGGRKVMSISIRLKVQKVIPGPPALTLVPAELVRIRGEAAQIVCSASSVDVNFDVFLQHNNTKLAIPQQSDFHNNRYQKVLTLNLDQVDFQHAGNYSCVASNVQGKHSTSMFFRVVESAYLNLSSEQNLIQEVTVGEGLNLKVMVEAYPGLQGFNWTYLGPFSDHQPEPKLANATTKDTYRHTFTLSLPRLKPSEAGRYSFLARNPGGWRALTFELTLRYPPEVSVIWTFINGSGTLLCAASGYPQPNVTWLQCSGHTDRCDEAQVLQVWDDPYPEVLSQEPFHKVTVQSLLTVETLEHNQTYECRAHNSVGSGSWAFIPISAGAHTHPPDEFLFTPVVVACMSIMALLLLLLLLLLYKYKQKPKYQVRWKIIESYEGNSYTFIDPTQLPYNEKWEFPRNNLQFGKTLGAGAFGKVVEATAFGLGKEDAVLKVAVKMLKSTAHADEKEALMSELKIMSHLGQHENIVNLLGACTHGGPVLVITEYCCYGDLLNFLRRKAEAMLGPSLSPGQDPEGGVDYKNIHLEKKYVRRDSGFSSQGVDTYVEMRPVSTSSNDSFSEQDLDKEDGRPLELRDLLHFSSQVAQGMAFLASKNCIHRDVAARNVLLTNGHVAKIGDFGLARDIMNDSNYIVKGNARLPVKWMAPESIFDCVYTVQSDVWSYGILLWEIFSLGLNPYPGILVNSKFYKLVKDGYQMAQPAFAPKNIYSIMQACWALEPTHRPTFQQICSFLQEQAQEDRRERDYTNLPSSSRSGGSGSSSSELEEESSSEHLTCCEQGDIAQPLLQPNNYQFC
Chain of Protein kinase C theta type (Homo sapiens) (Q04759 whole entry, looked up): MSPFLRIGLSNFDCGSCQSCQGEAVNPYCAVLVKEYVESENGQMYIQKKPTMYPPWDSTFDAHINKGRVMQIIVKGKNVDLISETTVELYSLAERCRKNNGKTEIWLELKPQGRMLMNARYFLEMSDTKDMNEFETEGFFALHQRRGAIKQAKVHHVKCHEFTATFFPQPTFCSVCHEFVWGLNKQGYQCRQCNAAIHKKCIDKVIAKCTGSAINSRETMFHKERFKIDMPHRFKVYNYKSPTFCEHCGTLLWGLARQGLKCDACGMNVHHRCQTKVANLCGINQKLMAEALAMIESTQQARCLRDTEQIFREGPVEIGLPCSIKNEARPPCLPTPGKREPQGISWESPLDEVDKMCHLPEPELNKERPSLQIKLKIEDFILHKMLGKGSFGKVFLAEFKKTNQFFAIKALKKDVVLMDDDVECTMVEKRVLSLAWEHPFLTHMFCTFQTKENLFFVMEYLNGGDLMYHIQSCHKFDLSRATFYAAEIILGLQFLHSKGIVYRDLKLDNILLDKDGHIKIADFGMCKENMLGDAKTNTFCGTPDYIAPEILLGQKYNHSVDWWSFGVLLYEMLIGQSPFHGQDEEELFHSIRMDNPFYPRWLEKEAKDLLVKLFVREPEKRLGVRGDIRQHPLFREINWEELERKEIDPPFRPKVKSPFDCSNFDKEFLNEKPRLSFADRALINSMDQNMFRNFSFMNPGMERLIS
Chain of Fibroblast growth factor receptor 2 (Homo sapiens) (P21802 22-821 limits assumed): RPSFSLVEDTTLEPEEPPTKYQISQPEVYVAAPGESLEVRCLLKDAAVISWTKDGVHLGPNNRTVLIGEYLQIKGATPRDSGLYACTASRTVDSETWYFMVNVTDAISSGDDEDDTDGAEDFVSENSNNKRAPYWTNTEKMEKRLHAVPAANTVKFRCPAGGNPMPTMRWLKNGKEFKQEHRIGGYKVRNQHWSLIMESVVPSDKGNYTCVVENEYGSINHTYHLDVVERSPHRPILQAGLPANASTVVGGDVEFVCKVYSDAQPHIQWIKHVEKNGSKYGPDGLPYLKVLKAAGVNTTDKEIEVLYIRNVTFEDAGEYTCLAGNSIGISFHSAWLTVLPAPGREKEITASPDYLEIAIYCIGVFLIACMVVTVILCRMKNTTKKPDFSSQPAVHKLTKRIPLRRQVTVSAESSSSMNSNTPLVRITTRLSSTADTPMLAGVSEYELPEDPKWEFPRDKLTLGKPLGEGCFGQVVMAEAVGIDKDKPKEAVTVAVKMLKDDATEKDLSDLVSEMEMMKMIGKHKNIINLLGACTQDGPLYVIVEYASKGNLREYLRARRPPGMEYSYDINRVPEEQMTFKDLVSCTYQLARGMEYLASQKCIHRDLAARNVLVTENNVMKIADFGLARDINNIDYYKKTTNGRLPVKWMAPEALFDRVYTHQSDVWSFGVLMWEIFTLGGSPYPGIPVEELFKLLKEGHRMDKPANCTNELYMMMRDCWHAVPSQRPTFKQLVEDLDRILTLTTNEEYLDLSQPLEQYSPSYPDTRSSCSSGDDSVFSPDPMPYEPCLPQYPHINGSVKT
Chain of Serine/threonine-protein kinase haspin (Homo sapiens) (Q8TF76 whole entry, the tested form may be a part): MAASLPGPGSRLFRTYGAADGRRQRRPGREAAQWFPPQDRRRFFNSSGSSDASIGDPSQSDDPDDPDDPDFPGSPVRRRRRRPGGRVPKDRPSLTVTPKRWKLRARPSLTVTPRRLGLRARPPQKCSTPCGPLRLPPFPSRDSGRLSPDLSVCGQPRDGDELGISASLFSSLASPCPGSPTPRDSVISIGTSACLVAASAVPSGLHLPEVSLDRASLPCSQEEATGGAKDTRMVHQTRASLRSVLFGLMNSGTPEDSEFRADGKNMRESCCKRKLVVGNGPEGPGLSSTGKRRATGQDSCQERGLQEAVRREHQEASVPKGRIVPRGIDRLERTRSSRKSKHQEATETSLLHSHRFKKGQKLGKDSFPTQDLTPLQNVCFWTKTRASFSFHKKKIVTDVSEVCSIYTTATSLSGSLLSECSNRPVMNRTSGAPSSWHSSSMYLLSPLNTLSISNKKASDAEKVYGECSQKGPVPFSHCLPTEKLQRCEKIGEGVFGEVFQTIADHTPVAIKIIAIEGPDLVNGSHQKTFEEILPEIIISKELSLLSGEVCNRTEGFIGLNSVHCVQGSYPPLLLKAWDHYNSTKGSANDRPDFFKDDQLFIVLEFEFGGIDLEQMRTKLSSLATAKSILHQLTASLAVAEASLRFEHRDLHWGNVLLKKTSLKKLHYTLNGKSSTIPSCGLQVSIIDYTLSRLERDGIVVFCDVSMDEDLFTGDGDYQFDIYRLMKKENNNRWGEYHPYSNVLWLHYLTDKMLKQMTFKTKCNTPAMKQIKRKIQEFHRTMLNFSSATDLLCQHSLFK
Chain of Testis-specific serine/threonine-protein kinase 4 (Homo sapiens) (Q6SA08 whole entry): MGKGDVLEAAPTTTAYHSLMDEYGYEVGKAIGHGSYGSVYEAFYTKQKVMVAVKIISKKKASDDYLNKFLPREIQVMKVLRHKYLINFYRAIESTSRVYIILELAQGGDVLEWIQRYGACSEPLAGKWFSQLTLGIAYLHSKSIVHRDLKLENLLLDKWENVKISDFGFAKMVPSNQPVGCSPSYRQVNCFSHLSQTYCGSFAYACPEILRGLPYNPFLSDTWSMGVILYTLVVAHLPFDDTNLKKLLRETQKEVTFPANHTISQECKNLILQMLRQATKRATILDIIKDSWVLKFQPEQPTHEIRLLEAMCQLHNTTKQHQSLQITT
Chain of Casein kinase II subunit alpha (Homo sapiens) (P68400 whole entry, looked up): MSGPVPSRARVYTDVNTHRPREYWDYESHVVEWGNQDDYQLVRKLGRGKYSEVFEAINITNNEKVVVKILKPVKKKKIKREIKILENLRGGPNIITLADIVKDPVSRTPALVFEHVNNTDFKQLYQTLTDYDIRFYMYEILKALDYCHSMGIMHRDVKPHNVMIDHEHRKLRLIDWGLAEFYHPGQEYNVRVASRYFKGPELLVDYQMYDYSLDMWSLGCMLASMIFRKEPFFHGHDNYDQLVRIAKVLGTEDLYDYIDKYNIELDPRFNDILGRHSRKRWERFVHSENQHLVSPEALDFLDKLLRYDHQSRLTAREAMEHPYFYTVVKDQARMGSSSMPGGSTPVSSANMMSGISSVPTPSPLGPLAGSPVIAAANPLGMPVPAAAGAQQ
Chain of Serine/threonine-protein kinase SBK1 (Homo sapiens) (Q52WX2 whole entry, the tested form may be a part): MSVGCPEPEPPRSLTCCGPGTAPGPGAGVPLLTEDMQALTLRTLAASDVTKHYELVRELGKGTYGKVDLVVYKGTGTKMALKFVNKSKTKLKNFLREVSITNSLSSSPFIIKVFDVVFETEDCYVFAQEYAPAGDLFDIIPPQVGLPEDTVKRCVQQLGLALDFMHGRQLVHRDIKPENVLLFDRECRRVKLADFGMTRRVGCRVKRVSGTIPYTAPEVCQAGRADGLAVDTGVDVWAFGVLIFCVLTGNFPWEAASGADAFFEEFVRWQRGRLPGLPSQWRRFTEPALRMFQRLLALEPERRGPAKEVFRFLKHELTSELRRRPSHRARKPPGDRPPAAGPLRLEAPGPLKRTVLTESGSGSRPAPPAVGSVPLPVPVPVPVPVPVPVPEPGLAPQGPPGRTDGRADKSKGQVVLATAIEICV
Chain of Serine/threonine-protein kinase Nek6 (Homo sapiens) (Q9HC98 whole entry): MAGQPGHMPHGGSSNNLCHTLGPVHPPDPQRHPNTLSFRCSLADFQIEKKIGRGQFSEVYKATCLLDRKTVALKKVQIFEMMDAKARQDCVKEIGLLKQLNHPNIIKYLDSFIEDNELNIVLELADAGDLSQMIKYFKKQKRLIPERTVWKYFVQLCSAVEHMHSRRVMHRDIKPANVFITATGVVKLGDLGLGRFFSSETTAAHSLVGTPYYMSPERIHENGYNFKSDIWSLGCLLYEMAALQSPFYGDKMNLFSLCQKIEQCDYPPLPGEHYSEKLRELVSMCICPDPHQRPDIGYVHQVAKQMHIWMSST

C[C@@H](c1ccccc1)n1nnc2cnc3ccc(-c4cnc5[nH]ccc5c4)cc3c21
Activity [1]: 28% | Activity [2]: 82% | Activity [3]: 4% | Activity [4]: 92% | Activity [5]: 51% | Activity [6]: 32% | Activity [7]: 84% | Activity [8]: 68% | Activity [9]: 73% | Activity [10]: 23% | Activity [11]: 68% | Activity [12]: 113% | Activity [13]: 85% | Activity [14]: 72% | Activity [15]: 70% | Activity [16]: 68% | Activity [17]: 21% | Activity [18]: 93% | Activity [19]: 91% | Activity [20]: 77% | Activity [21]: 82%
